The text below walks through data of ChEMBL document CHEMBL5537142 (Eur J Med Chem, 2024).

Data set [1] relates to MDA-MB-468. Nature of the data set: Inhibition of cell viability in human MDA-MB-468 cells at 100 uM incubated for 72 hrs by resazurin based assay. In kind it is functional.
The test system of data set [2] is MDA-MB-231. Nature of the data set: Inhibition of cell viability in human MDA-MB-231 cells at 100 uM incubated for 72 hrs by resazurin based assay. In kind it is functional.
For data set [3], the system named is MCF7. Nature of the data set: Inhibition of cell viability in human MCF7 cells at 100 uM incubated for 72 hrs by resazurin based assay. It is filed as functional.
The subject of data set [4] is MCF7. The data set is described as follows: Induction of cell death in human MCF7 cells at 0.05 to 200 uM incubated for 72 hrs by resazurin based assay. It is filed as functional. Particulars: dose 0.05-200 µM.
Data set [5] concerns MDA-MB-231. The data set is described as follows: Induction of cell death in human MDA-MB-231 cells at 0.05 to 200 uM incubated for 72 hrs by resazurin based assay. In kind it is functional. Particulars: dose 0.05-200 µM.
Data set [6] in a line: Solubility of compound incubated for 5 mins by absorbance based assay. In kind it is physicochemical.
The test system of data set [7] is MDA-MB-468. The data set is described as follows: Induction of cell death in human MDA-MB-468 cells at 0.05 to 200 uM incubated for 72 hrs by resazurin based assay. It is filed as functional. Particulars: dose 0.05-200 µM.
Data set [8] relates to MCF7. The data set is described as follows: Cytotoxicity against human MCF7 cells assessed as cell viability at 100 uM incubated for 72 hrs by resazurin based assay relative to control. In kind it is functional. Particulars: read-out: Activity.
The test system of data set [9] is MDA-MB-468. Nature of the data set: Cytotoxicity against human MDA-MB-468 cells assessed as cell viability at 100 uM incubated for 72 hrs by resazurin based assay relative to control. It is filed as functional. Particulars: read-out: Activity.
Data set [10] concerns the target T1, Dihydrofolate reductase (Homo sapiens) (UniProt P00374).
T1 sequence (whole entry): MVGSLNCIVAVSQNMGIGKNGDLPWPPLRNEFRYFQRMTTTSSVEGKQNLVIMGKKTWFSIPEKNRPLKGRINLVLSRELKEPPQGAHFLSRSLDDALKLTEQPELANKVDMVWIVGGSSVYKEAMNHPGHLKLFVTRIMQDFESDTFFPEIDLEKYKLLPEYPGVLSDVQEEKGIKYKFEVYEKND
Particulars: MDA-MB-468, dose 1.0 nM, time 24.0 hrs.

Data set [11] relates to MDA-MB-231. The data set is described as follows: Cytotoxicity against human MDA-MB-231 cells assessed as cell viability at 100 uM incubated for 72 hrs by resazurin based assay relative to control. In kind it is functional. Conditions: read-out: Activity.
The subject of data set [12] is MDA-MB-468. The data set is described as follows: Inhibition of cell viability in human MDA-MB-468 cells upto 100 uM incubated for 72 hrs by resazurin based assay relative to control. It is filed as functional. Conditions: up to 100 µM.
Data set [13] concerns MDA-MB-231. Nature of the data set: Inhibition of cell viability in human MDA-MB-231 cells upto 100 uM incubated for 72 hrs by resazurin based assay relative to control. In kind it is functional. Particulars: up to 100 µM.
Data set [14] concerns the target T1, Dihydrofolate reductase (Homo sapiens). Particulars: MDA-MB-468, dose 10.0 nM, time 24.0 hrs.
The subject of data set [15] is MCF7. Nature of the data set: Inhibition of cell viability in human MCF7 cells upto 100 uM incubated for 72 hrs by resazurin based assay relative to control. In kind it is functional. Particulars: up to 100 µM.

SMILES strings stand for the structures. ≈ marks a conversion by molar mass, not a printed value. Calls of active or inactive are those of the source. The calls are words filed in the database; no cut-off is given here. Where only a bound is given, the exact number is not on record here.

Consider `Nc1ncc(-c2ccc3ccccc3c2)c(N)n1`, for which the inhibition entry in the data set with MDA-MB-468 [1], with MDA-MB-231 [2] and with MCF7 [3] was “Active” in each case. The result with MCF7 [4], with MDA-MB-231 [5] and in the data set on MDA-MB-468 [7] was Active. Besides, the solubility at 5 min in [6] is over 100 µM.

For the compound `COc1ccc(CNc2ccc(-c3cnc(N)nc3N)cc2[N+](=O)[O-])cc1`, the inhibition result with MDA-MB-468 [1], in the data set on MDA-MB-231 [2] and in the data set on MCF7 [3] was “Active” each time. The outcome in the data set on MCF7 [4], in the data set on MDA-MB-231 [5] and in the data set on MDA-MB-468 [7] was Active. The solubility at 5 min in data set [6] is about 10 µM (≈ 3.66 µg/mL).

Take `Nc1ncc(-c2ccc(F)cc2Br)c(N)n1`: the inhibition entry in the data set with MDA-MB-468 [1], in the data set on MDA-MB-231 [2] and in the data set with MCF7 [3] was “inactive” each time.

As to `Nc1ncc(-c2ccc(Cl)c(F)c2)c(N)n1`, the inhibition result with MCF7 [3] is “inactive”.

For `CC(C)c1ccc(-c2cnc(N)nc2N)cc1`, the inhibition entry in the data set on MCF7 [3] is “inactive”. The compound further gave a solubility at 5 min in [6] of over 100 µM.

For the compound `Nc1ncc(-c2ccc(N3CCCC3)c([N+](=O)[O-])c2)c(N)n1`, the inhibition entry in the data set on MDA-MB-468 [1], in the data set on MDA-MB-231 [2] and in the data set on MCF7 [3] was “Active” each time. Moreover, the outcome in the data set with MCF7 [4], in the data set on MDA-MB-231 [5] and in the data set on MDA-MB-468 [7] was Active. The compound also registered a solubility at 5 min in data set [6] of over 100 µM.

With `CN(Cc1ccccc1)c1ccc(-c2cnc(N)nc2N)cc1[N+](=O)[O-]`, the inhibition entry in the data set with MCF7 [3] is “inactive”. For the same compound, the solubility at 5 min in data set [6] was about 10 µM (≈ 3.5 µg/mL).

With `Cc1ccc(-c2cnc(N)nc2N)cc1`, in the data set on MCF7 [3], the inhibition result is “inactive”.

Turning to `NCCCCCCNc1ccc(-c2cnc(N)nc2N)cc1[N+](=O)[O-]`, the inhibition result with MDA-MB-468 [1], in the data set on MDA-MB-231 [2] and with MCF7 [3] was “Active” each time. Further, the outcome with MCF7 [4], with MDA-MB-231 [5] and in the data set on MDA-MB-468 [7] was Active. This compound registered a solubility at 5 min in data set [6] of over 100 µM.

The compound `Nc1ncc(-c2ccc(Cl)c([N+](=O)[O-])c2)c(N)n1` came in with a solubility at 5 min in data set [6] of over 100 µM.

With `COc1cc(-c2cnc(N)nc2N)ccc1C`, the solubility at 5 min in [6] was over 100 µM.

Turning to `CCc1nc(N)nc(N)c1-c1ccc(Cl)cc1` [PYRIMETHAMINE], the viability at 100 µM in the data set on MCF7 [8], with MDA-MB-468 [9] and in the data set with MDA-MB-231 [11] was about 50% in each case. In [10], this compound displayed an inhibition of 40%. Further, in [6], the solubility at 5 min is over 100 µM. Moreover, the “inhibition (INH)” value with MDA-MB-468 [12], in the data set on MDA-MB-231 [13] and with MCF7 [15] was about 50% each time. Moreover, the inhibition result in [14] is “Active”.

On to `CC(C)(C)c1ccc(-c2cnc(N)nc2N)cc1`, for which the inhibition entry in the data set with MDA-MB-468 [1] was “Active”.

Compound `Nc1ncc(-c2cccc(Cl)c2)c(N)n1` gave a solubility at 5 min in data set [6] of over 100 µM.

In [6], `Nc1ncc(-c2ccc(Cl)c(Cl)c2)c(N)n1` showed a solubility at 5 min of over 100 µM.
